Target: Complement factor D (Homo sapiens, UniProt P00746)
Assay: Factor D Esterolytic Assay: An established esterolytic assay for the measurement of Factor D activity and inhibition of Factor D activity was used (Kam, C. M.; McRae, B. J.; Harper, J. W.; Niemann, M. A.; Volanakis, J. E.; Powers, J. C. Human complement proteins D, C2, and B Active site mapping with peptide thioester substrates. J Biol. Chem. 1987, 262, 3444-3451). For this assay Z-Lys-SBzl, 1.29 mM (Kim, S.; Narayana, S. V. L; Volanakis, J. E. Mutational analysis of the substrate binding site of human complement Factor D. Biochemistry. 1994, 33, 14393-14399.) was used as the substrate for Factor D ([…]). Hydrolysis of this compound by Factor D liberated a free sulfhydryl group which is then reacted with 5,5′-dithiobis(2nitrobenzoic acid) producing an intense yellow color (Habeeb, A. F. S. A. Reaction of protein sulfhydryl groups with Ellman's Reagent. Methods in Enzymol. 1976, 25, 457-464). The assays were performed in 96 well microtiter plates and rates of hydrolysis were monitored at 405 nm on a Biotek Synergy H1 plate reader. Hydrolysis rates were reported as change in mOD/min. The assay was conducted in 100 mM HEPES, 500 mM NaCl, pH 7.5 containing 10% DMSO in a final volume of 50 μL per well.

Complement factor D, sequence (P00746 whole entry): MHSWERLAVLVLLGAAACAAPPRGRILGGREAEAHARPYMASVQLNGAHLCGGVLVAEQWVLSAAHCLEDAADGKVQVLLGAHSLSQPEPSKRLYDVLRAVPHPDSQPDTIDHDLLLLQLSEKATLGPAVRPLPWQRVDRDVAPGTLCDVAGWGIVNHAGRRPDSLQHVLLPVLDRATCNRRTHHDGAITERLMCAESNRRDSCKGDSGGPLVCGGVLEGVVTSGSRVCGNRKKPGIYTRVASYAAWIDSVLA

Row | Structure (SMILES) | IC50
1 | CS(=O)(=O)n1ccc2c(-c3ccnc(CN)c3F)cc(COc3ccccc3CC(=O)O)cc21 | < 1 µM
2 | NCc1cccc(-c2cc(COc3ccc(F)cc3CC(=O)O)cc3ccoc23)c1F | < 1 µM
3 | NCc1cccc(-c2cc(COc3ccccc3CC(=O)O)cc3cc[nH]c23)c1 | < 1 µM
4 | NCc1nccc(-c2cc(COc3ccccc3CC(=O)O)cc3c2ccn3S(=O)(=O)C2CC2)c1F | < 1 µM

From ChEMBL document CHEMBL5729174, “Substituted benzofuran, benzopyrrole, benzothiophene, and structurally related complement inhibitors” (2022)
